Columns and labels:
[1] = target: Ba/F3 ERBB2 A775_G776insYVMA (Homo sapiens, UniProt P04626, DUP772-775, cells depend on it); test: Cell viability assay, Ba/F3 ERBB2 A775_G776insYVMA; assay type: cell-based, mouse; conditions: Ba/F3 ERBB2 YVMA cells, cell viability, 72 hours, CellTiter Glo; Table B5; read-out: Ba/F3 ERBB2 YVMA, IC50
How it was run: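 IL-3-independent Ba/F3 lines stably expressing the human ERBB2 insertion mutants were seeded at 3000 cells/well and exposed to compounds for 72 h at 37 °C, 5% CO2. Viability was read as ATP by CellTiter-Glo luminescence. Curves were fitted by sigmoidal nonlinear regression.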

[2] = target: T1, phosphorylated ERBB2 (pERBB2) (Homo sapiens, UniProt P04626); test: Detection of phosphorylated ERBB2 (pERBB2) by ELISA in BT-474 cells; assay type: cell-based; conditions: four hours incubation
T1 construct: endogenous in cells; host or cells: BT-474
How it was run: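 BT-474 cells (2.0×10^4/well) treated 4 h at 37 °C, 5% CO2 with compounds in four-fold dilutions from 10 µM to 0.01 nM. Lysate pERBB2 measured by ELISA with TMB read at 450 nm; % relative activity scaled between no-cell wells and 0.1% DMSO-treated cells.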

[3] = target: T2, phosphorylated EGFR (pEGFR) (Homo sapiens, UniProt P00533); test: Detection of phosphorylated EGFR (pEGFR) in EGF-stimulated A431 cells; assay type: cell-based; conditions: A431 cells (10% FBS), 4 hours incubation, EGF 30 ng/mL 10 minutes, AlphaLISA
T2 construct: performed to measure phosphorylated EGFR levels using A431 cells (10% FBS); endogenous in cells; host or cells: A431
How it was run: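 A431 cells in 10% FBS were preincubated with compound for 4 h at 37 °C, then stimulated with EGF (30 ng/mL final) for 10 min. pEGFR in lysates was read by AlphaLISA. % inhibition was calculated against DMSO and staurosporine-treated controls, and IC50 came from a four-parameter curve fit.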

T1 sequence (P04626 23-1255): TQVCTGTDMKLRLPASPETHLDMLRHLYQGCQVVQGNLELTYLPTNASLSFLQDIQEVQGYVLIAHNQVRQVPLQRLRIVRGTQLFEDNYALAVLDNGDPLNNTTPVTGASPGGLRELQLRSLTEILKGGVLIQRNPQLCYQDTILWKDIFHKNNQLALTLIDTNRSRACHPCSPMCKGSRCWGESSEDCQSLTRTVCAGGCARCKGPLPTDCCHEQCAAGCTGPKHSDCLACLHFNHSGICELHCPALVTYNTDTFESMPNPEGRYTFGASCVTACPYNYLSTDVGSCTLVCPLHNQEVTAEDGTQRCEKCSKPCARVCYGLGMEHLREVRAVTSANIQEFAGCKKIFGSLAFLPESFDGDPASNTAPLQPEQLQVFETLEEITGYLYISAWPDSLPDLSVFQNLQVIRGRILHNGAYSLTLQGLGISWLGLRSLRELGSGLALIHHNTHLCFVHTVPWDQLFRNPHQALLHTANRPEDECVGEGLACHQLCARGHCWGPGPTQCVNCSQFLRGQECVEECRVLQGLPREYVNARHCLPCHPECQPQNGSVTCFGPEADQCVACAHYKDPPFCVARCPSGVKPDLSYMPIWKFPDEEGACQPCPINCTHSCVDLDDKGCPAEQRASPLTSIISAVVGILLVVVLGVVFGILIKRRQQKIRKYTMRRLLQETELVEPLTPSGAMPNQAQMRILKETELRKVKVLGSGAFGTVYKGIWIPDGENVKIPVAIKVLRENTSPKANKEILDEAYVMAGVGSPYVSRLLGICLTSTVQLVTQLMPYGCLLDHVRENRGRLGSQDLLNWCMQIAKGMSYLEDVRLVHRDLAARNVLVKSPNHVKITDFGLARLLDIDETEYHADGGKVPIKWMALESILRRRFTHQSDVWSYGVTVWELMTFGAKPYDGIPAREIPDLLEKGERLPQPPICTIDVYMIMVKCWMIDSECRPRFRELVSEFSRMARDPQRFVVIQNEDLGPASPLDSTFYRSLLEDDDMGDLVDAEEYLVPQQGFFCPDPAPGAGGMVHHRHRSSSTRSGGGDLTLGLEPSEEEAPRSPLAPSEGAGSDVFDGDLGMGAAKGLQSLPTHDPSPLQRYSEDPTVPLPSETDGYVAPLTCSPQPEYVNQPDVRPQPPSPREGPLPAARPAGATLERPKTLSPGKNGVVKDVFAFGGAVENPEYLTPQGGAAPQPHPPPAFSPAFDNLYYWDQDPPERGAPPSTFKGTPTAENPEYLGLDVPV
Ba/F3 ERBB2 A775_G776insYVMA, sequence (P04626 with tags, fused parts or gaps DUP772-775): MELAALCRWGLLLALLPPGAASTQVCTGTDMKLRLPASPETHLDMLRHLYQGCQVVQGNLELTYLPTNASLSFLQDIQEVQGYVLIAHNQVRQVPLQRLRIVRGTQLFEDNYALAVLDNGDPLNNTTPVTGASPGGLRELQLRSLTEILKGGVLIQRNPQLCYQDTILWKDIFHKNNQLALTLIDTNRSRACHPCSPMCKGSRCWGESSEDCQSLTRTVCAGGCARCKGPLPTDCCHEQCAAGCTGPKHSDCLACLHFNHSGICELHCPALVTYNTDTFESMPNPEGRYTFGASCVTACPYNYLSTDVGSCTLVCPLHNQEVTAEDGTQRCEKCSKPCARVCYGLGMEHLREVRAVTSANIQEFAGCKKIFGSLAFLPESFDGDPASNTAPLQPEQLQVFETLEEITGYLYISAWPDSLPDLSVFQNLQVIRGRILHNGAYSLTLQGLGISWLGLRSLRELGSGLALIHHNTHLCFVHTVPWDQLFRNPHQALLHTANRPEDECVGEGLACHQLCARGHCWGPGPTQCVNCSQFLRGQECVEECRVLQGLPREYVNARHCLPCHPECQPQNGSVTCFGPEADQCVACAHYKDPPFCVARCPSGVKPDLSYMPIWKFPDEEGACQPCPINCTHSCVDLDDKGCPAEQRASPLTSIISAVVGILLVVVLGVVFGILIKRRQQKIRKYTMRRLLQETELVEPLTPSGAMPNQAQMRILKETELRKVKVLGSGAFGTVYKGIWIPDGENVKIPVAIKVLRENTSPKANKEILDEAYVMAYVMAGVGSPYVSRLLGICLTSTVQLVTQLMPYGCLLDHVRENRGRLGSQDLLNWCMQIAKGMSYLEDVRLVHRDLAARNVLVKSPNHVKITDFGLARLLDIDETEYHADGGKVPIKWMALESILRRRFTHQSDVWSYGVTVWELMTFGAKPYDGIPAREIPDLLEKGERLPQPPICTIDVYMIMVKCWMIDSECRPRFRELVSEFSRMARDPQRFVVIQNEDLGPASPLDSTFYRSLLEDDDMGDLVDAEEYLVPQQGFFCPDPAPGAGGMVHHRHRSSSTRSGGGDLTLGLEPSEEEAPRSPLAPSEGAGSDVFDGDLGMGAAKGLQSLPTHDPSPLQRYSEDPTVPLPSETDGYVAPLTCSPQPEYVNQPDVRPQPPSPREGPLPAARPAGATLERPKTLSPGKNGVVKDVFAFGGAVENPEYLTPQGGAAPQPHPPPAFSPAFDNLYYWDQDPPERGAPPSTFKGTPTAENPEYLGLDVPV
T2 sequence (P00533 25-1210): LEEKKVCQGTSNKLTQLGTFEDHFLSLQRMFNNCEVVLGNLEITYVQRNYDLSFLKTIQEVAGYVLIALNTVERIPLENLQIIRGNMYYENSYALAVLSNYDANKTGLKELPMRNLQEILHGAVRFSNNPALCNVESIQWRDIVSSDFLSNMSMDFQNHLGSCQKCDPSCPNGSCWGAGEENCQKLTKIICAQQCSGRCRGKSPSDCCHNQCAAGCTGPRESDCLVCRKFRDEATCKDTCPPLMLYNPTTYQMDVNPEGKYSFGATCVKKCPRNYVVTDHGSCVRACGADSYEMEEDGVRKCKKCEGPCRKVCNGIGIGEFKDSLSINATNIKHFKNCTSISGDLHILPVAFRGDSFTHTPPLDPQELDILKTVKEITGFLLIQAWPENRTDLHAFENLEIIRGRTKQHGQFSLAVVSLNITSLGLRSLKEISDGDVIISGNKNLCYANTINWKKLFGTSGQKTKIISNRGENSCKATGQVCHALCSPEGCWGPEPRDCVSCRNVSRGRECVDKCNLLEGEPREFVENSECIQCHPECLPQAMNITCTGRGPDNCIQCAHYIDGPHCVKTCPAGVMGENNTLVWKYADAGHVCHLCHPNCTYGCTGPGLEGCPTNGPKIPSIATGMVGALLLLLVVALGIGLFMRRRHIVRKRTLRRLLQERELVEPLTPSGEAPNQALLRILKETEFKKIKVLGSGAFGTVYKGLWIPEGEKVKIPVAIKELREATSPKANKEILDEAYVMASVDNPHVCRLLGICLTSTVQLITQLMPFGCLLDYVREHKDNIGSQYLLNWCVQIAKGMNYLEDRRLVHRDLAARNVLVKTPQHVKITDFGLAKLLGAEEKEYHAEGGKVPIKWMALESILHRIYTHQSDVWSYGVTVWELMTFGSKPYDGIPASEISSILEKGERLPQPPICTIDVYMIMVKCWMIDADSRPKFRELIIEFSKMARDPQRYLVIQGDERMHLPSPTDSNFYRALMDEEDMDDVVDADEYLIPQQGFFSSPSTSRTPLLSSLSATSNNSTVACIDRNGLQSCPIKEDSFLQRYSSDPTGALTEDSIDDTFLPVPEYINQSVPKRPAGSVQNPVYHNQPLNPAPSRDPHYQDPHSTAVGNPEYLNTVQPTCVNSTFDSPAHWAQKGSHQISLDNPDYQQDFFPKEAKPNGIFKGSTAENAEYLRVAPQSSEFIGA

Compound	IC50 [2]	IC50 [3]	GI50 [1]
C=C1CCCN(c2ccc3ncnc(Nc4ccc(Oc5ccc6c(c5)ncn6C)c(C)c4)c3n2)C1=O [Compound 96, 1-[4-({3-methyl-4-[(1-methyl-1,3-benzodiazol-5-yl)oxy]phenyl}amino)pyrido[3,2-d]pyrimidin-6-yl]-3-methylidenepiperidin-2-one]	22.8 nM	794 nM	18.6 nM
C=C1CCN(c2cc3c(Nc4ccc(Oc5ccc6c(c5)ncn6C)c(C)c4)ncnc3cn2)C1=O [Compound 39, 1-(4-((3-methyl-4-((1-methyl-1H-benzo[d]imidazol-5-yl)oxy)phenyl)amino)pyrido[3,4-d]pyrimidin-6-yl)-3-methylenepyrrolidin-2-one]	36.2 nM	497 nM	14.6 nM
C=C1CCN(c2cc3c(Nc4ccc(Oc5ccn6ncnc6c5)c(C)c4)ncnc3cn2)C1=O [Compound 28, 1-(4-((4-([1,2,4]triazolo[1,5-a]pyridin-7-yloxy)-3-methylphenyl)amino)pyrido[3,4-d]pyrimidin-6-yl)-3-methylenepyrrolidin-2-one]	7.77 nM	355 nM	5.32 nM
Cc1cc(Nc2ncnc3cnc(N4CC(C)C(=CCN(C)C)C4=O)cc23)ccc1Oc1ccc2c(c1)ncn2C (single isomer, unassigned) [Example S97, Enantiomer #1, 3-[2-(dimethylamino)ethylidene]-4-methyl-1-[4-({3-methyl-4-[(1-methyl-1,3-benzodiazol-5-yl)oxy]phenyl}amino)pyrido[3,4-d]pyrimidin-6-yl]pyrrolidin-2-one]	41.3 nM	> 10000 nM	45.6 nM
Cc1ccc(Oc2ccc(Nc3ncnc4ccc(N5CC/C(=C\CN(C)C)C5=O)nc34)cc2C)cn1 [Compound 49, (E)-3-(2-(dimethylamino)ethylidene)-1-(4-((3-methyl-4-((6-methylpyridin-3-yl)oxy)phenyl)amino)pyrido[3,2-d]pyrimidin-6-yl)pyrrolidin-2-one]	13.9 nM	173 nM	0.999 nM
CN(C)C/C=C1\CCN(c2cc3c(Nc4cc(F)c(Oc5ccn6ncnc6c5)cc4F)ncnc3cn2)C1=O [Compound 140, (3E)-1-{4-[(2,5-difluoro-4-{[1,2,4]triazolo[1,5-a]pyridin-7-yloxy}phenyl)amino]pyrido[3,4-d]pyrimidin-6-yl}-3-[2-(dimethylamino)ethylidene]pyrrolidin-2-one]	20.5 nM	> 10000 nM	78.1 nM
Cc1cc(Nc2ncnc3ccc(N4CC/C(=C\CN(C)C)C4=O)nc23)c(F)cc1Oc1ccn2ncnc2c1 [Compound 79, (3E)-3-[2-(dimethylamino)ethylidene]-1-{4-[(2-fluoro-5-methyl-4-{[1,2,4]triazolo[1,5-a]pyridin-7-yloxy}phenyl)amino]pyrido[3,2-d]pyrimidin-6-yl}pyrrolidin-2-one]	8.77 nM	> 10000 nM	2.92 nM
C=C1C(=O)N(c2cc3c(Nc4ccc(Oc5ccn6ncnc6c5)c(C)c4)ncnc3cn2)C[C@H]1C [Compound 32, (4S)-4-methyl-1-{4-[(3-methyl-4-{[1,2,4]triazolo[1,5-a]pyridin-7-yloxy}phenyl)amino]pyrido[3,4-d]pyrimidin-6-yl}-3-methylidenepyrrolidin-2-one]	72.1 nM	8180 nM	134 nM
Cc1cc(Nc2ncnc3ccc(N4CC/C(=C\CN(C)C)C4=O)nc23)ccc1Oc1ccc2[nH]cnc2c1 [Compound 118, (3E)-1-(4-{[4-(1H-1,3-benzodiazol-5-yloxy)-3-methylphenyl]amino}pyrido[3,2-d]pyrimidin-6-yl)-3-[2-(dimethylamino)ethylidene]pyrrolidin-2-one]	10.3 nM	177 nM	1.55 nM
Cc1cc(Nc2ncnc3cnc(N4CC/C(=C\CN(C)C)C4=O)cc23)ccc1Oc1ccn2nnnc2c1 [Compound 107, (3E)-3-[2-(dimethylamino)ethylidene]-1-{4-[(3-methyl-4-{[1,2,3,4]tetrazolo[1,5-a]pyridin-7-yloxy}phenyl)amino]pyrido[3,4-d]pyrimidin-6-yl}pyrrolidin-2-one]	21.6 nM	> 10000 nM	81.3 nM

Further compounds by falling IC50 [2], results first:

IC50 [2]	IC50 [3]	Compound	GI50 [1]
425 nM	> 10000 nM	C=C1CCN(c2nc3c(Nc4ccc(Oc5ccc6c(c5)ncn6C)c(C)c4)ncnc3s2)C1=O [Compound 84, 1-[7-({3-methyl-4-[(1-methyl-1,3-benzodiazol-5-yl)oxy]phenyl}amino)-[1,3]thiazolo[5,4-d]pyrimidin-2-yl]-3-methylidenepyrrolidin-2-one]	45 nM
163 nM	> 10000 nM	Cc1cc(Nc2c(C#N)cnc3ccc(N4CC/C(=C\CN(C)C)C4=O)nc23)ccc1Oc1ccc2c(c1)ncn2C [Compound 124, 6-[(3E)-3-[2-(dimethylamino)ethylidene]-2-oxopyrrolidin-1-yl]-4-({3-methyl-4-[(1-methyl-1,3-benzodiazol-5-yl)oxy]phenyl}amino)-1,5-naphthyridine-3-carbonitrile]	34.2 nM
80.1 nM	2150 nM	C=C1CCN(c2ccc3ncnc(Nc4ccc(Oc5ccc6cncnc6c5)c(C)c4)c3c2)C1=O [Compound 50, 1-(4-{[3-methyl-4-(quinazolin-7-yloxy)phenyl]amino}quinazolin-6-yl)-3-methylidenepyrrolidin-2-one]	46.4 nM
54.1 nM	3990 nM	Cc1cc(Nc2ncnc3cnc(N4CC/C(=C\CN(C)C)C4=O)cc23)ccc1Oc1ccn2c(C)cnc2c1 [Compound 82, (3E)-3-[2-(dimethylamino)ethylidene]-1-(4-{[3-methyl-4-({3-methylimidazo[1,2-a]pyridin-7-yl}oxy)phenyl]amino}pyrido[3,4-d]pyrimidin-6-yl)pyrrolidin-2-one]	6.39 nM
40.9 nM	2330 nM	C=C1C(=O)N(c2ccc3ncnc(Nc4ccc(Cc5ccn6ncnc6c5)c(C)c4)c3c2)C[C@H]1C [Compound 36, (S)-1-(4-((4-([1,2,4]triazolo[1,5-a]pyridin-7-ylmethyl)-3-methylphenyl)amino)quinazolin-6-yl)-4-methyl-3-methylenepyrrolidin-2-one]	80.5 nM
40 nM	968 nM	CC1CN(c2cc3c(Nc4ccc(Oc5ccc6c(c5)nnn6C)c(F)c4)ncnc3cn2)C(=O)/C1=C/CN(C)C (single isomer, unassigned) [Example S117, Enantiomer #1, (E)-3-(2-(dimethylamino)ethylidene)-1-(4-((3-fluoro-4-((1-methyl-1H-benzo[d][1,2,3]triazol-5-yl)oxy)phenyl)amino)pyrido[3,4-d]pyrimidin-6-yl)-4-methylpyrrolidin-2-one]	12 nM
35.5 nM	6450 nM	C=C1C(=O)N(c2cc3c(Nc4ccc(Oc5ccn6ncnc6c5)c(C)c4)ncnc3cn2)C2CC12 (single isomer, unassigned; enantiomer 2) [Example S40, Enantiomer # 2, 2-{4-[(3-methyl-4-{[1,2,4]triazolo[1,5-a]pyridin-7-yloxy}phenyl)amino]pyrido[3,4-d]pyrimidin-6-yl}-4-methylidene-2-azabicyclo[3.1.0]hexan-3-one Enantiomer 2]	68.1 nM
29.3 nM	407 nM	Cc1cc(Nc2ncnc3ccc(N4CC/C(=C\CN(C)C)C4=O)nc23)ccc1Oc1ccc2c(c1)ncn2C [Compound 38, (3E)-3-[2-(dimethylamino)ethylidene]-1-[4-({3-methyl-4-[(1-methyl-1,3-benzodiazol-5-yl)oxy]phenyl}amino)pyrido[3,2-d]pyrimidin-6-yl]pyrrolidin-2-one]	2 nM
29 nM	4490 nM	C=C1C(=O)N(c2ccc3ncnc(Nc4ccc(Oc5ccc6c(c5)ncn6C)c(C)c4)c3c2)C[C@@H]1C [Compound 41, (R)-4-methyl-1-(4-((3-methyl-4-((1-methyl-1H-benzo[d]imidazol-5-yl)oxy)phenyl)amino)quinazolin-6-yl)-3-methylenepyrrolidin-2-one]	29 nM
22.6 nM	670 nM	Cc1cc(Nc2ncnc3cnc(N4CC/C(=C\CN(C)C)C4=O)cc23)ccc1Oc1ccc2c(c1)ncn2C [Compound 45, (E)-3-(2-(dimethylamino)ethylidene)-1-(4-((3-methyl-4-((1-methyl-1H-benzo[d]imidazol-5-yl)oxy)phenyl)amino)pyrido[3,4-d]pyrimidin-6-yl)pyrrolidin-2-one]	1.79 nM
21.3 nM	> 10000 nM	CN(C)C/C=C1\CCN(c2ccc3ncnc(Nc4ccc(Oc5ccc6c(c5)ncn6C)cc4)c3n2)C1=O [Compound 92, (3E)-3-[2-(dimethylamino)ethylidene]-1-[4-({4-[(1-methyl-1,3-benzodiazol-5-yl)oxy]phenyl}amino)pyrido[3,2-d]pyrimidin-6-yl]pyrrolidin-2-one]	3.12 nM
